Assay results reported in US20100184596A1, “METHOD FOR THE CONTROL OF WEEDS IN TURF” (SYNGENTA CROP PROTECTION, INC., priority 2007, published 2010).

Tests used:
Format in all cases: in vivo
[1] = tested on: Bermudagrass v. Tifway 419; test: Phytotoxicity via post emergence spray application (Table B2.3)
Procedure: The phytotoxicity of the compound of formula I to turfgrass species was tested. The compound was applied via post emergence spray to a range of warm and cool season turfgrass species at various rates and spray treatment treatment regimes. Percentage phytotoxicity assessments were taken at various timepoints.

[2] = tested on: St. Augustinegrass v. Delmar; test: Phytotoxicity via granule application (Table B3.1)
Procedure: The phytotoxicity of the compound of formula I to turfgrass species was tested. The compound was applied by distribution of granule formulations of formula I, post emergence, to turfgrass species at two rates. All treatments were watered-in 1 day after application. Percentage phytotoxicity assessments were taken at various timepoints.
Two granule formulations were made and tested. Granule A is an inert granule formulation, comprising 99.06 wt % DG Lite 150 granules, 0.14 wt % compound of formula I, 0.50 wt % Sunspray 6N, and 0.30 wt % HiSil 233. The compound of formula I was added to the DG Lite granules while blending in a Continental Rollo-mixer.
Sunspray 6N oil was then sprayed onto the granules, and HiSil added to dry excess liquid and improve granule flowability. The granules were blended in the mixer for 20-30 minutes until homogeneous, and passed through a −12/+60 mesh to remove over and under sized particles.
Granule B is a fertiliser granule formulation, comprising 54.65 wt % urea, 6.63 wt % triple super phosphate, 4.95 wt % potassion chloride, 9.91 wt % huber clay, 7.22 wt % HiSil 233, 0.16 wt % compound of formula I, […] agnique ME 181, 2.07 wt % stepfac 8180, and 11.98 wt % water. […] The remaining HiSil was added and granules dried at 40-60° C., to remove excess liquid. Finally, the granules were passed through a −12/+60 mesh to remove over and under sized particles.

[3] = tested on: Richardia scabra (Florida Pusley); test: Weed control via post emergence spray, in common centipedegrass (Table B5.2)
Procedure: The weed control efficacy of the compound of formula I was tested. The compound was applied via post emergence spray to a range of weeds, at various rates and spray treatment treatment regimes. Percentage weed control assessments were taken at various timepoints.

[4] = tested on: clover and dandelion in turfgrass varieties; test: Example B1, conclusion in words; details: in Kentucky bluegrass, tall fescue and perennial ryegrass at the tested application rates
Procedure: The selectivity of the compound of formula I in turf (removal of grassy and broadleaf weeds) has been tested in turfgrass varieties selected from Kentucky bluegrass, tall fescue and perennial ryegrass and in […] selected from clover (an aggressive perennial weed) and dandelion (a weed of perennial horticultural crops and gardens which may also be a problem in some annual crops, particularly where reduced tillage is practiced).
The trials were conducted in Champaign, Ill., U.S. (Table B1.1) and Hudson, N.Y., U.S. (Table B1.2) under field conditions. Turfgrasses were maintained at approximately a 2.5″ height, like a home lawn. Mixed turf and weed stands were present. The test compounds were applied with a CO2 pressurized backpack sprayer by spraying in the form of an aqueous suspension (prepared from a wettable powder) in a concentration of 210 to 280 g/ha. The plots were then mowed and irrigated as needed. After 22 and 28 days respectively, the test is visually evaluated (100%=total damage to plant; 0%=no damage to plant).

[5] = tested on: St. Augustinegrass v. Delmar; test: Phytotoxicity via granule application (Table B3.1); remark: listed apart in the source

COCCOCc1nc(C(F)(F)F)ccc1C(=O)C1=C(O)C2CCC(C2)C1=O (stereo not drawn) [Formula I, 4-Hydroxy-3-[2-(2-methoxyethoxymethyl)-6-trifluoromethylpyridine-3-carbonyl]-bicyclo[3.2.1]oct-3-en-2-one]
% phytotoxicity ([1]; 1 appl, 140 g ai/ha, 8 DAT): 36.25% | % phytotoxicity ([1]; 1 appl, 140 g ai/ha, 14 DAT): 28.75% | % phytotoxicity ([1]; 1 appl, 140 g ai/ha, 29 DAT): 1.25% | % phytotoxicity ([1]; 1 appl, 140 g ai/ha, 35 DAT): 0.00% | % phytotoxicity ([1]; 1 appl, 140 g ai/ha, 43 DAT): 0.00% | % phytotoxicity ([1]; 1 appl, 140 g ai/ha, 51 DAT): 0.00% | % phytotoxicity ([1]; 1 appl, 140 g ai/ha, 60 DAT): 0.00% | % phytotoxicity ([1]; 1 appl, 280 g ai/ha, 8 DAT): 35.00% | % phytotoxicity ([1]; 1 appl, 280 g ai/ha, 14 DAT): 52.50% | % phytotoxicity ([1]; 1 appl, 280 g ai/ha, 29 DAT): 1.25% | % phytotoxicity ([1]; 1 appl, 280 g ai/ha, 35 DAT): 0.00% | % phytotoxicity ([1]; 1 appl, 280 g ai/ha, 43 DAT): 0.00% | % phytotoxicity ([1]; 1 appl, 280 g ai/ha, 51 DAT): 0.00% | % phytotoxicity ([1]; 1 appl, 280 g ai/ha, 60 DAT): 0.00% | % phytotoxicity ([1]; 2 appl, 140 g ai/ha, 8 DAT): 26.25% | % phytotoxicity ([1]; 2 appl, 140 g ai/ha, 14 DAT): 31.25% | % phytotoxicity ([1]; 2 appl, 140 g ai/ha, 29 DAT): 0.00% | % phytotoxicity ([1]; 2 appl, 140 g ai/ha, 35 DAT): 30.00% | % phytotoxicity ([1]; 2 appl, 140 g ai/ha, 43 DAT): 18.75% | % phytotoxicity ([1]; 2 appl, 140 g ai/ha, 51 DAT): 7.50% | % phytotoxicity ([1]; 2 appl, 140 g ai/ha, 60 DAT): 0.00% | % phytotoxicity ([1]; 2 appl, 280 g ai/ha, 8 DAT): 36.25% | % phytotoxicity ([1]; 2 appl, 280 g ai/ha, 14 DAT): 52.50% | % phytotoxicity ([1]; 2 appl, 280 g ai/ha, 29 DAT): 3.75% | % phytotoxicity ([1]; 2 appl, 280 g ai/ha, 35 DAT): 28.75% | % phytotoxicity ([1]; 2 appl, 280 g ai/ha, 43 DAT): 22.50% | % phytotoxicity ([1]; 2 appl, 280 g ai/ha, 51 DAT): 8.75% | % phytotoxicity ([1]; 2 appl, 280 g ai/ha, 60 DAT): 0.00% | % phytotoxicity ([2]; Granule A (inert), 112 g ai/ha, 7 DAT): 8.30% | % phytotoxicity ([2]; Granule A (inert), 112 g ai/ha, 20 DAT): 0.00% | % phytotoxicity ([2]; Granule A (inert), 280 g ai/ha, 7 DAT): 20.00% | % phytotoxicity ([2]; Granule A (inert), 280 g ai/ha, 11 DAT): 5.70% | % phytotoxicity ([2]; Granule A (inert), 280 g ai/ha, 15 DAT): 3.30% | % phytotoxicity ([2]; Granule B (fertiliser), 112 g ai/ha, 7 DAT): 23.30% | % phytotoxicity ([2]; Granule B (fertiliser), 112 g ai/ha, 11 DAT): 10.00% | % phytotoxicity ([2]; Granule B (fertiliser), 112 g ai/ha, 15 DAT): 5.00% | % phytotoxicity ([2]; Granule B (fertiliser), 280 g ai/ha, 11 DAT): 20.00% | % control ([3]; 1 appl, 140 g ai/ha, 5 DAT): 16.67% | % control ([3]; 1 appl, 140 g ai/ha, 13 DAT): 25.00% | % control ([3]; 1 appl, 140 g ai/ha, 21 DAT): 33.33% | % control ([3]; 1 appl, 140 g ai/ha, 27 DAT): 33.33% | % control ([3]; 1 appl, 140 g ai/ha, 35 DAT): 23.33% | % control ([3]; 1 appl, 140 g ai/ha, 42 DAT): 16.67% | % control ([3]; 1 appl, 140 g ai/ha, 61 DAT): 13.33% | % control ([3]; 1 appl, 280 g ai/ha, 5 DAT): 20.00% | % control ([3]; 1 appl, 280 g ai/ha, 13 DAT): 36.67% | % control ([3]; 1 appl, 280 g ai/ha, 21 DAT): 46.67% | % control ([3]; 1 appl, 280 g ai/ha, 27 DAT): 41.67% | % control ([3]; 1 appl, 280 g ai/ha, 35 DAT): 38.33% | % control ([3]; 1 appl, 280 g ai/ha, 42 DAT): 28.33% | % control ([3]; 1 appl, 280 g ai/ha, 61 DAT): 38.33% | % control ([3]; 2 appl, 140 g ai/ha, 5 DAT): 16.67% | % control ([3]; 2 appl, 140 g ai/ha, 13 DAT): 20.00% | % control ([3]; 2 appl, 140 g ai/ha, 21 DAT): 41.67% | % control ([3]; 2 appl, 140 g ai/ha, 27 DAT): 33.33% | % control ([3]; 2 appl, 140 g ai/ha, 35 DAT): 60.00% | % control ([3]; 2 appl, 140 g ai/ha, 42 DAT): 53.33% | % control ([3]; 2 appl, 140 g ai/ha, 61 DAT): 8.33% | % control ([3]; 2 appl, 280 g ai/ha, 5 DAT): 16.67% | % control ([3]; 2 appl, 280 g ai/ha, 13 DAT): 28.33% | % control ([3]; 2 appl, 280 g ai/ha, 21 DAT): 46.67% | % control ([3]; 2 appl, 280 g ai/ha, 27 DAT): 35.00% | % control ([3]; 2 appl, 280 g ai/ha, 35 DAT): 61.67% | % control ([3]; 2 appl, 280 g ai/ha, 42 DAT): 61.67% | % control ([3]; 2 appl, 280 g ai/ha, 61 DAT): 16.67% | selective weed control in turfgrass, in words [4]: suitable to combat undesired broadleaf weeds like clover and dandelion in turfgrass varieties | % phytotoxicity ([5]; Granule A (inert), 112 g ai/ha, 11 DAT): 1.30% | % phytotoxicity ([5]; Granule A (inert), 112 g ai/ha, 15 DAT): 0.70% | % phytotoxicity ([5]; Granule A (inert), 112 g ai/ha, 28 DAT): 0.00% | % phytotoxicity ([5]; Granule A (inert), 280 g ai/ha, 20 DAT): 0.00% | % phytotoxicity ([5]; Granule A (inert), 280 g ai/ha, 28 DAT): 0.00% | % phytotoxicity ([5]; Granule B (fertiliser), 112 g ai/ha, 20 DAT): 1.30% | % phytotoxicity ([5]; Granule B (fertiliser), 112 g ai/ha, 28 DAT): 0.00% | % phytotoxicity ([5]; Granule B (fertiliser), 280 g ai/ha, 7 DAT): 36.70% | % phytotoxicity ([5]; Granule B (fertiliser), 280 g ai/ha, 15 DAT): 11.70% | % phytotoxicity ([5]; Granule B (fertiliser), 280 g ai/ha, 20 DAT): 5.00% | % phytotoxicity ([5]; Granule B (fertiliser), 280 g ai/ha, 28 DAT): 1.70% | % phytotoxicity ([5]; Spray, 112 g ai/ha, 7 DAT): 36.70% | % phytotoxicity ([5]; Spray, 112 g ai/ha, 11 DAT): 20.00% | % phytotoxicity ([5]; Spray, 112 g ai/ha, 15 DAT): 9.30% | % phytotoxicity ([5]; Spray, 112 g ai/ha, 20 DAT): 4.00% | % phytotoxicity ([5]; Spray, 112 g ai/ha, 28 DAT): 0.00% | % phytotoxicity ([5]; Spray, 280 g ai/ha, 7 DAT): 60.00% | % phytotoxicity ([5]; Spray, 280 g ai/ha, 11 DAT): 43.30% | % phytotoxicity ([5]; Spray, 280 g ai/ha, 15 DAT): 20.00% | % phytotoxicity ([5]; Spray, 280 g ai/ha, 20 DAT): 10.00% | % phytotoxicity ([5]; Spray, 280 g ai/ha, 28 DAT): 3.30%
